ChEMBL document CHEMBL5252531, “2015 Philip S. Portoghese Medicinal Chemistry Lectureship. Curing Hepatitis C Virus Infection with Direct-Acting Antiviral Agents: The Arc of a Medicinal Chemistry Triumph” (J Med Chem, 2016)

Legend:
Hepatitis C virus [1] = assay: Antiviral activity against HCV GT1b-genotype assessed as inhibition of viral replication; assay type: functional, organism-based, Hepacivirus hominis
[2] = tested on: Bovine viral diarrhea virus 1; assay: Antiviral activity against Bovine viral diarrhea virus 1 infected in MDBK cells assessed as reduction in viral replication; assay type: functional, organism-based; conditions: Bovine viral diarrhea virus isolates and strains
[3] = tested on: Bovine viral diarrhea virus 1; assay: Antiviral activity against Bovine viral diarrhea virus 1; assay type: functional, organism-based; conditions: Bovine viral diarrhea virus isolates and strains
[4] = tested on: Human immunodeficiency virus 1; assay: Antiviral activity against HIV-1; assay type: functional, organism-based
Human rhinovirus sp. = assay: Antiviral activity against HRV; assay type: functional, organism-based
[5] = tested on: Respiratory syncytial virus; assay: Antiviral activity against RSV; assay type: functional, organism-based; conditions: human respiratory syncytial virus
[6] = Cytotoxicity against human HEK293 cells assessed as reduction in cell viability […] after 72 hrs by alamar blue assay; assay type: toxicity, cell-based
Huh-7 = assay: Cytotoxicity against human Huh-7 cells assessed as reduction in cell viability […] after 72 hrs by alamar blue assay; assay type: functional
[7] = Cytotoxicity against African green monkey Vero cells assessed as reduction in cell viability […] after 72 hrs by alamar blue assay; assay type: toxicity, cell-based; conditions: chlorocebus sabaeus
[8] = Cytotoxicity against human MRC5 cells assessed as reduction in cell viability measured after 72 hrs by alamar blue assay; assay type: toxicity, cell-based
HeLa = assay: Cytotoxicity against human HeLa cells assessed as reduction in cell viability measured after 72 hrs by Alamar blue assay; assay type: functional
[9] = Cytotoxicity against human MT2 cells assessed as cell viability measured after 72 hrs by MTT assay; assay type: toxicity, cell-based
Hepatitis C virus [10] = assay: Antiviral activity against HCV genotype 1b expressing NS5B S365A mutant variant; assay type: functional, organism-based, Hepacivirus hominis
Hepatitis C virus [11] = assay: Antiviral activity against HCV genotype 1a; assay type: functional, organism-based, Hepacivirus hominis
Hepatitis C virus [12] = assay: Antiviral activity against HCV genotype 1b; assay type: functional, organism-based, Hepacivirus hominis
[13] = Oral bioavailability in rat at 3 mg/kg; assay type: ADME, organism-based; conditions: in vivo
[14] = Drug concentration in Beagle dog plasma at 6 mg/kg, po measured after 24 hrs by LC-MS/MS analysis; assay type: ADME, organism-based, Canis lupus familiaris
[15] = Drug concentration in Sprague-Dawley rat plasma at 15 mg/kg, po measured after 24 hrs by LC-MS/MS analysis; assay type: ADME, organism-based
[16] = Drug concentration in cynomolgus monkey liver at 10 mg/kg, po measured after 24 hrs by LC-MS/MS analysis; assay type: ADME, organism-based, Macaca fascicularis; conditions: read-out: Ct
[17] = Drug concentration in Beagle dog liver at 6 mg/kg, po measured after 24 hrs by LC-MS/MS analysis; assay type: ADME, organism-based, Canis lupus familiaris; conditions: read-out: Ct
[18] = Drug concentration in Sprague-Dawley liver at 15 mg/kg, po measured after 24 hrs by LC-MS/MS analysis; assay type: ADME, organism-based; conditions: rat, read-out: Ct
[19] = Drug concentration in FVB mouse liver at 5 mg/kg, po measured after 24 hrs by LC-MS/MS analysis; assay type: ADME, organism-based; conditions: read-out: Ct
[20] = AUC in FVB mouse at 5 mg/kg, po measured after 24 hrs by LC-MS/MS analysis; assay type: ADME, organism-based; parameters: dose 5 mg/kg, time 24 hrs, route po; conditions: in vivo
Hepatitis C virus [21] = assay: Inhibition of HCV genotype 1a; assay type: functional, organism-based, Hepacivirus hominis
Hepatitis C virus [22] = assay: Inhibition of HCV genotype 1b; assay type: functional, organism-based, Hepacivirus hominis
Hepatitis C virus [23] = assay: Inhibition of HCV genotype 2a; assay type: functional, organism-based, Hepacivirus hominis
Hepatitis C virus [24] = assay: Inhibition of HCV genotype 2b; assay type: functional, organism-based, Hepacivirus hominis
Hepatitis C virus [25] = assay: Inhibition of HCV genotype 3a; assay type: functional, organism-based, Hepacivirus hominis
Hepatitis C virus [26] = assay: Inhibition of HCV genotype 4a; assay type: functional, organism-based, Hepacivirus hominis
Hepatitis C virus [27] = assay: Inhibition of HCV genotype 5a; assay type: functional, organism-based, Hepacivirus hominis
Hepatitis C virus [28] = assay: Inhibition of HCV genotype 6a; assay type: functional, organism-based, Hepacivirus hominis
Hepatitis C virus [29] = assay: Antiviral activity against HCV genotype 2a; assay type: functional, organism-based, Hepacivirus hominis
Hepatitis C virus [30] = assay: Antiviral activity against HCV genotype 3a; assay type: functional, organism-based, Hepacivirus hominis
Hepatitis C virus [31] = assay: Antiviral activity against HCV genotype 4a; assay type: functional, organism-based, Hepacivirus hominis
[32] = AUC in Sprague-Dawley rat at 15 mg/kg, po measured after 24 hrs by LC-MS/MS analysis; assay type: ADME, organism-based; parameters: dose 15 mg/kg, time 24 hrs, route po; conditions: in vivo
[33] = AUC in Beagle dog at 3 mg/kg, po measured after 24 hrs by LC-MS/MS analysis; assay type: ADME, organism-based, Canis lupus familiaris; parameters: dose 3 mg/kg, time 24 hrs, route po; conditions: in vivo
[34] = AUC in cynomolgus monkey at 3mg/kg, po measured after 24 hrs by LC-MS/MS analysis; assay type: ADME, organism-based, Macaca fascicularis; parameters: time 24 hrs, route po; conditions: in vivo
Hepatitis C virus [35] = assay: Antiviral activity against Hepatitis C virus infected RNA assessed as reduction in viral replication at 200 mg, po BID measured for 3 days; assay type: functional, Hepacivirus hominis; conditions: time 3 day
Hepatitis C virus [36] = assay: Antiviral activity against Hepatitis C virus infected RNA assessed as reduction in viral replication at 400 mg, po BID measured for 3 days; assay type: functional, Hepacivirus hominis; conditions: time 3 day
Hepatitis C virus [37] = assay: Antiviral activity against Hepatitis C virus infected RNA assessed as reduction in viral replication at 600 mg, po BID measured for 3 days; assay type: functional, Hepacivirus hominis; conditions: time 3 day
in vivo [38] = conditions: cynomolgus monkey, iv, 1 mg/kg
Description: Half life in cynomolgus monkey at 1 mg/kg, iv measured after 24 hrs by HPLC method

in vivo [39] = conditions: cynomolgus monkey, po, 3 mg/kg
in vivo [40] = conditions: Sprague-Dawley, rat, iv, 5 mg/kg
Description: Half life in Sprague-Dawley rat at 5 mg/kg, iv measured after 24 hrs by HPLC method

in vivo [41] = conditions: FVB, mouse, po, 5 mg/kg
in vivo [42] = conditions: male, Sprague-Dawley, rat, po, 15 mg/kg
in vivo [43] = conditions: FVB, mouse, iv, 2 mg/kg
Description: Half life in FVB mouse at 2 mg/kg, iv measured after 24 hrs by HPLC method

in vivo [44] = conditions: beagle, dog, iv, 1 mg/kg
Description: Half life in Beagle dog at 1 mg/kg, iv measured after 24 hrs by HPLC method

Hepatitis C virus [45] = assay: Antiviral activity against HCV genotype 1b by replicon assay; assay type: functional, organism-based, Hepacivirus hominis

C[C@H](NC(=O)OCc1ccccc1)C(=O)Nc1ccc(C2S/C(=N\c3cccc(F)c3)N(Cc3ccco3)C2=O)cc1 (some centres not stated)
EC50 (Hepatitis C virus [1]): 570 nM
EC50 [2]: 24000 nM
EC50 [3]: 17000 nM
EC50 [4]: 41000 nM
EC50 (Human rhinovirus sp.): > 100000 nM
EC50 [5]: 23000 nM
CC50 at 72 h [6]: > 50000 nM
CC50 (Huh-7): > 100000 nM
CC50 at 72 h [7]: > 150000 nM
CC50 at 72 h [8]: 41000 nM
CC50 (HeLa): > 100000 nM
CC50 at 72 h [9]: 23000 nM

O=C(O)/C=C/c1ccc(NC(=O)C2(NC(=O)c3ccc4c(C5CCCCC5)c5n(c4c3)CC(=O)Nc3ccccc3-5)CCCC2)cc1
EC50 (Hepatitis C virus [10]): 8 nM

O=C1Cn2c(c(C3CCCCC3)c3ccc(C(=O)O)cc32)-c2ccccc2N1
EC50 (Hepatitis C virus [11]): < 10 nM
EC50 (Hepatitis C virus [12]): < 10 nM
EC50 (Hepatitis C virus [10]): 170 nM
bioavailability [13]: 17%

C=C[C@@H]1C[C@]1(NC(=O)[C@@H]1C[C@@H](Oc2ncc(OC)c3ccc(Cl)cc23)CN1C(=O)[C@@H](NC(=O)OC(C)(C)C)C(C)(C)C)C(=O)NS(=O)(=O)C1CC1
concentration at 24 h [14]: 6 nM
concentration at 24 h [15]: 40 nM
concentration at 24 h [16]: 440 nM
concentration at 24 h [17]: 2500 nM
concentration at 24 h [18]: 1200 nM
concentration at 24 h [19]: 710 nM
AUC at 24 h [20]: 0.54 µM·h
IC50 (Hepatitis C virus [21]): 0.7 nM
IC50 (Hepatitis C virus [22]): 0.3 nM
IC50 (Hepatitis C virus [23]): 15 nM
IC50 (Hepatitis C virus [24]): 78 nM
IC50 (Hepatitis C virus [25]): 320 nM
IC50 (Hepatitis C virus [26]): 1.6 nM
IC50 (Hepatitis C virus [27]): 1.7 nM
IC50 (Hepatitis C virus [28]): 0.9 nM
EC50 (Hepatitis C virus [12]): 1.2 nM
EC50 (Hepatitis C virus [29]): 230 nM
EC50 (Hepatitis C virus [30]): 1160 nM
EC50 (Hepatitis C virus [31]): 1.8 nM
AUC at 24 h [32]: 1 µM·h
AUC at 24 h [33]: 2.2 µM·h
AUC at 24 h [34]: 0.41 µM·h
Activity (Hepatitis C virus [35]): 3.09 log10 IU/mL
Activity (Hepatitis C virus [36]): 3.57 log10 IU/mL
Activity (Hepatitis C virus [37]): 2.84 log10 IU/mL
half-life at 24 h (in vivo [38]): 1.3 h
bioavailability (in vivo [39]): 11%
half-life at 24 h (in vivo [40]): 4.2 h
bioavailability (in vivo [41]): 28%
bioavailability (in vivo [42]): 14%
half-life at 24 h (in vivo [43]): 4.6 h
half-life at 24 h (in vivo [44]): 1 h

O=C(Nc1ccc(/C=C/c2ccc(NC(=O)[C@@H]3CCCN3C(=O)CC3CC3)cc2)cc1)[C@@H]1CCCN1C(=O)CC1CC1
EC50 (Hepatitis C virus [12]): 62 nM

C=C[C@@H]1C[C@]1(NC(=O)[C@@H]1C[C@@H](Oc2cc(-c3ccccc3)nc3cc(OC)ccc23)CN1C(=O)[C@@H](NC(=O)OC(C)(C)C)C(C)(C)C)C(=O)O
EC50 (Hepatitis C virus [45]): 550 nM
IC50 (Hepatitis C virus [21]): 54 nM
